In US20230365546A1, “5-SUBSTITUTED INDOLE 3-AMIDE DERIVATIVES, PREPARATION METHOD AND USE THEREOF” (ORIGIANT PHARMACEUTICAL CO., LTD, priority 2020, published 2023):

Legend:
Assay in all cases: Kinase Profiler 10 μM panel
HIPK2(h) = HIPK2(h) (Homo sapiens (Human), UniProt Q9H2X6)
Protocol: (§1) In vitro kinase assays were conducted using Kinase Profiler services provided by Eurofins. The experimental method was as follows: the small molecule compound to be tested (0.001-10 μM), the protein kinase to be tested were incubated with a buffer containing substrate, 10 mM magnesium acetate, and [γ-^33P-ATP], the reaction was started by adding Mg\TPmix, after incubation for a period of time at room temperature, a 3% phosphate solution was added to the buffer to stop the reaction. Subsequently, 10 μL of the reaction mixture was quantitatively pipetted onto P30 filter paper, which was washed three times with 75 mM phosphate solution and then once with methanol. The P30 filter paper was air-dried and scintillation fluid was added for scintillation counting.

ErbB4(h) = ErbB4(h) (Homo sapiens (Human), UniProt Q15303)
Protocol: as §1

CK1γ2(h) = CK1γ2(h) (Homo sapiens (Human), UniProt P78368)
Protocol: as §1

GCN2(h) = GCN2(h) (Homo sapiens (Human), UniProt Q9P2K8)
Protocol: as §1

BrSK2(h) = BrSK2(h) (Homo sapiens (Human), UniProt Q8IWQ3)
Protocol: as §1

EphB4(h) = EphB4(h) (Homo sapiens (Human), UniProt P54760)
Protocol: as §1

Met(M1268T)(h) = Met(M1268T)(h) (Homo sapiens (Human), UniProt P08581, M1250T)
Protocol: as §1

Wee1B(h) = Wee1B(h) (Homo sapiens (Human), UniProt P0C1S8)
Chain of Wee1B(h) (P0C1S8 whole entry): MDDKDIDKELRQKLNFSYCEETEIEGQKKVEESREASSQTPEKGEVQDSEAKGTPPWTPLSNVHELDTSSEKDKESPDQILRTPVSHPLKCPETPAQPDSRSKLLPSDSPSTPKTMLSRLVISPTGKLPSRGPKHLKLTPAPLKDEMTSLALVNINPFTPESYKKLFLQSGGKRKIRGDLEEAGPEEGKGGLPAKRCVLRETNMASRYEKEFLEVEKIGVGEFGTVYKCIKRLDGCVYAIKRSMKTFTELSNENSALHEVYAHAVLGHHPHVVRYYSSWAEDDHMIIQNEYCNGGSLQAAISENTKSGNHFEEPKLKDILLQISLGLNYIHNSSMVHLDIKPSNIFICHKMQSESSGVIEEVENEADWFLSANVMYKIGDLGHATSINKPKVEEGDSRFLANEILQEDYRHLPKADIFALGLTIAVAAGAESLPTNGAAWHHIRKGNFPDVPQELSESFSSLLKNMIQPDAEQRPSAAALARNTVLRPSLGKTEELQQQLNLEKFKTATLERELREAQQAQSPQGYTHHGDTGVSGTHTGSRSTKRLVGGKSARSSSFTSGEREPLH
Protocol: as §1

DMPK(h) = DMPK(h) (Homo sapiens (Human), UniProt Q09013)
Protocol: as §1

CSRC(h) = CSRC(h) (Homo sapiens (Human), UniProt P12931)
Protocol: as §1

[1] = molecular target: PI3 Kinase (p110a/p65a)(h) (Homo sapiens (Human), UniProt P42336)
Protocol: as §1

DDR2(h) = DDR2(h) (Homo sapiens (Human), UniProt Q16832)
Protocol: as §1

PDGFRα(h) = PDGFRα(h) (Homo sapiens (Human), UniProt P16234)
Protocol: as §1

c-RAF(h) = c-RAF(h) (Homo sapiens (Human), UniProt P04049, Y340D/Y341D)
Chain of c-RAF(h) (P04049 306-648 Y340D/Y341D limits assumed): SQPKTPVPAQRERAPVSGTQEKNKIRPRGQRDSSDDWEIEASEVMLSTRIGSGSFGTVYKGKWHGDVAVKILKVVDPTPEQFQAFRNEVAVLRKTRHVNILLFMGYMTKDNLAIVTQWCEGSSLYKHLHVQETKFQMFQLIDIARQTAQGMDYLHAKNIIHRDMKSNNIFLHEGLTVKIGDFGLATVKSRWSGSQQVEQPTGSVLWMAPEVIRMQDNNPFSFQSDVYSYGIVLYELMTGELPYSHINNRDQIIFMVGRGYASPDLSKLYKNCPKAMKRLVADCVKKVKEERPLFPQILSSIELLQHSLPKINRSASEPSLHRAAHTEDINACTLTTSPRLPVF
Protocol: as §1

CaMKIIδ(h) = CaMKIIδ(h) (Homo sapiens (Human), UniProt Q13557)
Protocol: as §1

Fes(h) = Fes(h) (Homo sapiens (Human), UniProt P07332)
Protocol: as §1

CLK3(h) = CLK3(h) (Homo sapiens (Human), UniProt P49761)
Chain of CLK3(h) (P49761 whole entry): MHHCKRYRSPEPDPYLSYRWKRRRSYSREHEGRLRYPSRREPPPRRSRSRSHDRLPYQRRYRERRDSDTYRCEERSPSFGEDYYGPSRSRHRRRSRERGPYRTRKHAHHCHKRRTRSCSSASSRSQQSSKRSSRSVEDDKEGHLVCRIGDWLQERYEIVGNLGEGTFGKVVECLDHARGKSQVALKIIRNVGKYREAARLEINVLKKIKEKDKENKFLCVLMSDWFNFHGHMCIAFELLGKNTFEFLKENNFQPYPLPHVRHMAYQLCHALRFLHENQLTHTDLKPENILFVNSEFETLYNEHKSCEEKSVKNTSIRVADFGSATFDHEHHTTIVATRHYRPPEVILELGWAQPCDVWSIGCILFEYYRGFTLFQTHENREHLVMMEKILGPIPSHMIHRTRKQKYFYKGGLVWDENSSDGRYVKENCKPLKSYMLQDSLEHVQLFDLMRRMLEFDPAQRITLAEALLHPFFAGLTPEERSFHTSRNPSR
Protocol: as §1

MAPK1(h) = MAPK1(h) (Homo sapiens (Human), UniProt P27361)
Chain of MAPK1(h) (P27361 whole entry): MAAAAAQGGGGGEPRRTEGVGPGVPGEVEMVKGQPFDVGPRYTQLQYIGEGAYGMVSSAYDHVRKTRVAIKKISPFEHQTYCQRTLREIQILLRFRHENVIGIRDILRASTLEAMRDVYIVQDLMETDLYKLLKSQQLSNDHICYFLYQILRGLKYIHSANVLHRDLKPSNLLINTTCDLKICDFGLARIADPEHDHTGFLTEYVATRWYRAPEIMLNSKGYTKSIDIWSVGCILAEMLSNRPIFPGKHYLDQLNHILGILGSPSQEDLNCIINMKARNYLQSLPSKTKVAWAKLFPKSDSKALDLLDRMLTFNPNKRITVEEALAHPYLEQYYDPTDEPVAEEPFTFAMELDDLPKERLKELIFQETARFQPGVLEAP
Protocol: as §1

CDK3/cyclinE(h) = CDK3/cyclinE(h) (Homo sapiens (Human), UniProt Q00526)
Chain of CDK3/cyclinE(h) (Q00526 whole entry): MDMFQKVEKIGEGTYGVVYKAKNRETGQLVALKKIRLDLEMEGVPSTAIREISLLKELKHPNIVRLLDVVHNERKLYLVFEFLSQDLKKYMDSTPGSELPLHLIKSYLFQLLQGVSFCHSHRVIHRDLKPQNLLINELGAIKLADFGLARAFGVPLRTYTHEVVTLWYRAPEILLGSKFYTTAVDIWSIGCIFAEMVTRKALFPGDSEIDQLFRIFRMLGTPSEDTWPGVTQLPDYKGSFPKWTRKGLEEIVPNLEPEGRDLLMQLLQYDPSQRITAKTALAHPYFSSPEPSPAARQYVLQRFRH
Chain of CDK3/cyclinE(h) (P24864 whole entry partner): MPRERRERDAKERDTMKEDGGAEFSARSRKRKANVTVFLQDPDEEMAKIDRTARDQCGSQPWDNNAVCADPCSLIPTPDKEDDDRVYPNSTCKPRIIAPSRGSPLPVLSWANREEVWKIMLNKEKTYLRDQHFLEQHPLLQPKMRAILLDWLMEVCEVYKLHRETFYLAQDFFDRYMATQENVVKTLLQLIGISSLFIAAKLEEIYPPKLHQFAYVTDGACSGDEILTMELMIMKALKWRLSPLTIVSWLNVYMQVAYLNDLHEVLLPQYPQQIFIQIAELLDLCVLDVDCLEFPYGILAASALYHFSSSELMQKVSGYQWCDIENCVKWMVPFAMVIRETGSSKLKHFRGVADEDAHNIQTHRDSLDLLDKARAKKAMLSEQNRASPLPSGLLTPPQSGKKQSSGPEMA
Protocol: as §1

PDGFRβ(h) = PDGFRβ(h) (Homo sapiens (Human), UniProt P09619)
Chain of PDGFRβ(h) (P09619 33-1106): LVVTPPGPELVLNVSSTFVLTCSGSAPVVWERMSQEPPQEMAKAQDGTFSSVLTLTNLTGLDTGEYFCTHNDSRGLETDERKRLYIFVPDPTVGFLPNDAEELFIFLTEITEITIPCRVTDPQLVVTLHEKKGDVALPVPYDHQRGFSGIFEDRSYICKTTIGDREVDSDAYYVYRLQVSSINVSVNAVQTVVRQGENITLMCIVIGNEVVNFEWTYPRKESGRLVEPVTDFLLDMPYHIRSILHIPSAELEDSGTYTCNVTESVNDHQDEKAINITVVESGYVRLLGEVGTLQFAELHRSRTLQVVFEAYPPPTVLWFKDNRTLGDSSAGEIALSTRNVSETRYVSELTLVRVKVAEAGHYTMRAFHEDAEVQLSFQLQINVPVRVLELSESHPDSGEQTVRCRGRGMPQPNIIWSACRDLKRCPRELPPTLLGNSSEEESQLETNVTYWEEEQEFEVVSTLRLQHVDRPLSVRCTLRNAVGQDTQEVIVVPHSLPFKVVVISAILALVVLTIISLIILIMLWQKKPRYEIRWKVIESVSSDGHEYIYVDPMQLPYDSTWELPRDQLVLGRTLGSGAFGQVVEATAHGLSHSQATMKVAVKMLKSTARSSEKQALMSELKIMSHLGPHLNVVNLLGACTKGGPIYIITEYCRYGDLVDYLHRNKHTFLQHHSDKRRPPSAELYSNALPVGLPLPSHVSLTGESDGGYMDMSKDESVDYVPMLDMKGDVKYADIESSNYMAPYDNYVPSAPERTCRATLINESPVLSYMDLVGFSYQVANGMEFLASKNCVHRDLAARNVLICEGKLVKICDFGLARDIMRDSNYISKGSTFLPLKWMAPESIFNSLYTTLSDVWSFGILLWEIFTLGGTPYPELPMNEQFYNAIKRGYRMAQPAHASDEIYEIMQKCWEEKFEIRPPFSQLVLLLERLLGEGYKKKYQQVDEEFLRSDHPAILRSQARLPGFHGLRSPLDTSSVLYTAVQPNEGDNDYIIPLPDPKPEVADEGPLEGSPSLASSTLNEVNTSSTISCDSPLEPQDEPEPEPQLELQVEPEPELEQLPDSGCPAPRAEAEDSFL
Protocol: as §1

[2] = molecular target: PI3 Kinase (p110b/p85b)(m) (Mus musculus (Mouse), UniProt Q8BTI9)
Protocol: as §1

SRPK2(h) = SRPK2(h) (Homo sapiens (Human), UniProt P78362)
Chain of SRPK2(h) (P78362 whole entry): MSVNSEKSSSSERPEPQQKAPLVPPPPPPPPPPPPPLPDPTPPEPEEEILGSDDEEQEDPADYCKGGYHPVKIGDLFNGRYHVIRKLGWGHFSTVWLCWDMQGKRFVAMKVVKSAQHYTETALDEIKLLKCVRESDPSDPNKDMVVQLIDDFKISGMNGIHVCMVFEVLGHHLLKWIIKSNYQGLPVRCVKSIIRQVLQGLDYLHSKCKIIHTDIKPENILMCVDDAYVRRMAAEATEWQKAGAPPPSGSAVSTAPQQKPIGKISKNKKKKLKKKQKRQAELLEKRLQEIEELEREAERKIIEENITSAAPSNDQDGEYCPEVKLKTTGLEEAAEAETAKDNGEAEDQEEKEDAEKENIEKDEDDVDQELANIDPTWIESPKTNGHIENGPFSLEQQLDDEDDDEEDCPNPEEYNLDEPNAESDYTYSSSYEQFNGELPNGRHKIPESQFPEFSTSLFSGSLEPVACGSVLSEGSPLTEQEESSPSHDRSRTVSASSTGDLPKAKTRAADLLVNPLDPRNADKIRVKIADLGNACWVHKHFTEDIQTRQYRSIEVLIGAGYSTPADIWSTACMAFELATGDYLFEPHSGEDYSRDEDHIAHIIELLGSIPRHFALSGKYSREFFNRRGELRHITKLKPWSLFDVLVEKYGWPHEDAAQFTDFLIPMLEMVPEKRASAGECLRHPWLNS
Protocol: The experimental method was as follows: the small molecule compound to be tested (0.001-10 μM), the protein kinase to be tested were incubated with a buffer containing substrate, 10 mM magnesium acetate, and [γ-^33P-ATP], the reaction was started by adding Mg\TPmix, after incubation for a period of time at room temperature, a 3% phosphate solution was added to the buffer to stop the reaction. Subsequently, 10 μL of the reaction mixture was quantitatively pipetted onto P30 filter paper, which was washed three times with 75 mM phosphate solution and then once with methanol. The P30 filter paper was air-dried and scintillation fluid was added for scintillation counting.

Blk(h) = Blk(h) (Homo sapiens (Human), UniProt P51451)
Protocol: as §1

Syk(h) = Syk(h) (Homo sapiens (Human), UniProt P43405)
Protocol: as §1

TLK1(h) = TLK1(h) (Homo sapiens (Human), UniProt Q9UKI8)
Protocol: as §1

ChaK1(h) = system: ChaK1(h)
Protocol: as §1

CK2α1(h) = CK2α1(h) (Homo sapiens (Human), UniProt P68400)
Protocol: as §1

MAPKAP-K3(h) = MAPKAP-K3(h) (Homo sapiens (Human), UniProt Q16644)
Protocol: as §1

ACTR2(h) = ACTR2(h) (Homo sapiens (Human), UniProt P27037)
Chain of ACTR2(h) (P27037 20-513): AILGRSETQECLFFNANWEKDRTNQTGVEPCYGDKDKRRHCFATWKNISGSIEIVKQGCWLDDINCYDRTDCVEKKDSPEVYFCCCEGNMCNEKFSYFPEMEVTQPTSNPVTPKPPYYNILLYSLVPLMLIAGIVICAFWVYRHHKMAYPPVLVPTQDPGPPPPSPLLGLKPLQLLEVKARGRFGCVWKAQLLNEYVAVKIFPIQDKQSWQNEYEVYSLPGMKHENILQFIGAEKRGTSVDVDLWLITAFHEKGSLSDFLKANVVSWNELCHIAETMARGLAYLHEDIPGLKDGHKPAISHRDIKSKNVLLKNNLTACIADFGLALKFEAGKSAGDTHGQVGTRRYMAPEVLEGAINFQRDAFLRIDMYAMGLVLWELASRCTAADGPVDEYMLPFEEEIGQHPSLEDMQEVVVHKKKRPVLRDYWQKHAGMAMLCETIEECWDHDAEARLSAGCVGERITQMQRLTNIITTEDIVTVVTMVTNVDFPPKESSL
Protocol: as §1

EphA1(h) = EphA1(h) (Homo sapiens (Human), UniProt P21709)
Protocol: as §1

BTK(h) = BTK(h) (Homo sapiens (Human), UniProt Q06187)
Protocol: as §1

Met(D1246H)(h) = Met(D1246H)(h) (Homo sapiens (Human), UniProt P08581, D1228H)
Protocol: as §1

PKD3(h) = PKD3(h) (Homo sapiens (Human), UniProt O94806)
Protocol: as §1

MAP4K5(h) = MAP4K5(h) (Homo sapiens (Human), UniProt Q9Y4K4)
Protocol: as §1

With `C[C@H](NC(=O)c1c[nH]c2ccc(-c3ccc4nc(NC(=O)C5CC5)sc4c3)cc12)c1cccc(F)c1` [Compound 34, (S)-5-(2-(cyclopropanecarboxamido)benzo[d]thiazol-6-yl)-N-(1-(3-fluorophenyl)ethyl)-1H-indole-3-carboxamide] the Inhibition ratio (HIPK2(h)) was 66%, the Inhibition ratio (ErbB4(h)) was 22% and the Inhibition ratio (CK1γ2(h)) was 9%. The Inhibition ratio (GCN2(h)) was 14%, the Inhibition ratio (BrSK2(h)) was 8% and the Inhibition ratio (EphB4(h)) was 11%. For the same compound, the Inhibition ratio (Met(M1268T)(h)) was 93%, the Inhibition ratio (Wee1B(h)) was −2% and the Inhibition ratio (DMPK(h)) was 10%. For the same compound, the Inhibition ratio (CSRC(h)) was 43%, the Inhibition ratio [1] was 55% and the Inhibition ratio (DDR2(h)) was 76%. It also gave an Inhibition ratio (PDGFRα(h)) of 32%, an Inhibition ratio (c-RAF(h)) of 15% and an Inhibition ratio (CaMKIIδ(h)) of 22%. The Inhibition ratio (Fes(h)) was 26%, the Inhibition ratio (CLK3(h)) was 35% and the Inhibition ratio (MAPK1(h)) was 25%. The Inhibition ratio (CDK3/cyclinE(h)) was −13%, the Inhibition ratio (PDGFRβ(h)) was 9% and the Inhibition ratio [2] was 45%. For the same compound, the Inhibition ratio (SRPK2(h)) was 17%, the Inhibition ratio (Blk(h)) was 65% and the Inhibition ratio (Syk(h)) was 98%. The Inhibition ratio (TLK1(h)) was 19%, the Inhibition ratio (ChaK1(h)) was 5% and the Inhibition ratio (CK2α1(h)) was 7%. The Inhibition ratio (MAPKAP-K3(h)) was −1%, the Inhibition ratio (ACTR2(h)) was 6% and the Inhibition ratio (EphA1(h)) was 3%. The Inhibition ratio (BTK(h)) was 15%, the Inhibition ratio (Met(D1246H)(h)) was 95% and the Inhibition ratio (PKD3(h)) was −5%. It also gave an Inhibition ratio (MAP4K5(h)) of 64%.
`C[C@H](NC(=O)c1cn(C)c2ccc(-c3ccn4nc(NC(=O)C5CC5)nc4c3)cc12)c1cccc(F)c1` [Compound 94, (S)-5-(2-(cyclopropanecarboxamido)-[1,2,4]triazolo[1,5-a]pyridin-7-yl)-N-(1-(3-fluorophenyl)ethyl)-1-methyl-1H-indole-3-carboxamide] gave an Inhibition ratio/% (HIPK2(h)) of 36%, an Inhibition ratio/% (ErbB4(h)) of 63% and an Inhibition ratio/% (CK1γ2(h)) of 50%. For the same compound, the Inhibition ratio/% (GCN2(h)) was 23%, the Inhibition ratio/% (BrSK2(h)) was −2% and the Inhibition ratio/% (EphB4(h)) was 56%. For the same compound, the Inhibition ratio/% (Met(M1268T)(h)) was −10%, the Inhibition ratio/% (Wee1B(h)) was −2% and the Inhibition ratio/% (DMPK(h)) was −2%. It also gave an Inhibition ratio/% (CSRC(h)) of −17%, an Inhibition ratio/% [1] of 4% and an Inhibition ratio/% (DDR2(h)) of 20%. The Inhibition ratio/% (PDGFRα(h)) was 51%, the Inhibition ratio/% (c-RAF(h)) was −13% and the Inhibition ratio/% (CaMKIIδ(h)) was −11%. The Inhibition ratio/% (Fes(h)) was 54%, the Inhibition ratio/% (CLK3(h)) was 35% and the Inhibition ratio/% (MAPK1(h)) was 33%. It also gave an Inhibition ratio/% (CDK3/cyclinE(h)) of 65%, an Inhibition ratio/% (PDGFRβ(h)) of 49% and an Inhibition ratio/% [2] of 44%. It also gave an Inhibition ratio/% (SRPK2(h)) of −16%, an Inhibition ratio/% (Blk(h)) of 65% and an Inhibition ratio/% (Syk(h)) of 69%. The Inhibition ratio/% (TLK1(h)) was 11%, the Inhibition ratio/% (ChaK1(h)) was 66% and the Inhibition ratio/% (CK2α1(h)) was 58%. The Inhibition ratio/% (MAPKAP-K3(h)) was −12%, the Inhibition ratio/% (ACTR2(h)) was −3% and the Inhibition ratio/% (EphA1(h)) was −12%. For the same compound, the Inhibition ratio/% (BTK(h)) was 65%, the Inhibition ratio/% (Met(D1246H)(h)) was 34% and the Inhibition ratio/% (PKD3(h)) was −13%. The Inhibition ratio/% (MAP4K5(h)) was 6%.
